Columns and labels:
[1] = biological target: T1, angiotensin-converting enzyme (ACE) (Homo sapiens, UniProt P12821); assay: Percentage change in the angiotensin II/angiotensin I ratio four hours after the initial enalapril dose in children with heart failure; format: in vivo; details: eight children with heart failure, four hours after first dose, median 0.06 mg/kg enalapril maleate
T1 construct: from tissue; host or cells: in vivo in human subjects; ACE activity read indirectly from the plasma angiotensin II/angiotensin I ratio
Description: In the pharmacokinetic bridging studies, a pharmacokinetic/pharmacodynamic profile was usually obtained in ACE inhibitor-naïve subjects at the initial dose visit, with pharmacokinetic samples collected before and 1, 2, 4, 6, and 12 h after enalapril orodispersible minitablet administration, as well as pharmacodynamic samples collected before and 4 h after administration. Alternatively, the pharmacokinetic/pharmacodynamic profile could also be obtained after reaching steady state at the optimal dose. In this case, the 12 h pharmacokinetic sample was omitted. Single pharmacokinetic and pharmacodynamic samples were collected in immediate succession during the remaining study visits. […]
For the simultaneous determination of several angiotensin peptides, including angiotensin I and angiotensin II, a validated multiplex liquid chromatography high-resolution mass spectrometry method was applied. Following precipitation and solid-phase extraction, the samples were analyzed using a Nexera XR liquid chromatography system (Shimadzu, Duisburg, Germany) coupled to a TripleTOF® 6600 mass spectrometer from AB Sciex (Concord, ON, Canada). […]
The percentage change in the angiotensin II/angiotensin I ratio was calculated in children with heart failure in whom an angiotensin II/angiotensin I ratio was available before the first dose of enalapril and four hours afterwards.

ACE activity = tested on: ACE activity; parameters: method as in PMID 8512763; details: eight infants with congestive heart failure, after four hours, single dose of 0.25 mg/kg enalapril maleate; cited from earlier work
[2] = Serum enalaprilat concentrations in children with heart failure treated with enalapril orodispersible minitablets; format: in vivo, human; details: median first dose 0.06 mg/kg, median daily dose 0.11 mg/kg enalapril maleate
Description: For the studies, a dosing regimen with age- and weight-dependent recommended titration doses, target doses, and maximum doses was developed using physiologically based pharmacokinetic simulation (Table S2). The appropriate dosage for each subject was selected based on the judgment of the investigator. Daily doses ≤ 0.25 mg were administered once daily in the morning, and daily doses > 0.25 mg were administered in two equal divided doses in the morning and evening. The required number of orodispersible minitablets with 0.25 mg enalapril maleate or 1 mg enalapril maleate (now approved as Aqumeldi®, Proveca Pharma Limited, Dublin, Ireland) was placed in the patient’s cheek pouch. The orodispersible minitablets rapidly disintegrated into small, easily swallowable particles. To facilitate swallowing, a fluid of the patient’s/parent’s choice (e.g., breast milk, formula milk, cow milk, water) could be administered.
In the pharmacokinetic bridging studies, a pharmacokinetic/pharmacodynamic profile was usually obtained in ACE inhibitor-naïve subjects at the initial dose visit, with pharmacokinetic samples collected before and 1, 2, 4, 6, and 12 h after enalapril orodispersible minitablet administration, as well as pharmacodynamic samples collected before and 4 h after administration. […]

[3] = parameters: method as in PMID 26256099; details: parameters estimated in children extrapolated to an adult weight of 70 kg; cited from earlier work

T1 sequence (P12821 30-1306): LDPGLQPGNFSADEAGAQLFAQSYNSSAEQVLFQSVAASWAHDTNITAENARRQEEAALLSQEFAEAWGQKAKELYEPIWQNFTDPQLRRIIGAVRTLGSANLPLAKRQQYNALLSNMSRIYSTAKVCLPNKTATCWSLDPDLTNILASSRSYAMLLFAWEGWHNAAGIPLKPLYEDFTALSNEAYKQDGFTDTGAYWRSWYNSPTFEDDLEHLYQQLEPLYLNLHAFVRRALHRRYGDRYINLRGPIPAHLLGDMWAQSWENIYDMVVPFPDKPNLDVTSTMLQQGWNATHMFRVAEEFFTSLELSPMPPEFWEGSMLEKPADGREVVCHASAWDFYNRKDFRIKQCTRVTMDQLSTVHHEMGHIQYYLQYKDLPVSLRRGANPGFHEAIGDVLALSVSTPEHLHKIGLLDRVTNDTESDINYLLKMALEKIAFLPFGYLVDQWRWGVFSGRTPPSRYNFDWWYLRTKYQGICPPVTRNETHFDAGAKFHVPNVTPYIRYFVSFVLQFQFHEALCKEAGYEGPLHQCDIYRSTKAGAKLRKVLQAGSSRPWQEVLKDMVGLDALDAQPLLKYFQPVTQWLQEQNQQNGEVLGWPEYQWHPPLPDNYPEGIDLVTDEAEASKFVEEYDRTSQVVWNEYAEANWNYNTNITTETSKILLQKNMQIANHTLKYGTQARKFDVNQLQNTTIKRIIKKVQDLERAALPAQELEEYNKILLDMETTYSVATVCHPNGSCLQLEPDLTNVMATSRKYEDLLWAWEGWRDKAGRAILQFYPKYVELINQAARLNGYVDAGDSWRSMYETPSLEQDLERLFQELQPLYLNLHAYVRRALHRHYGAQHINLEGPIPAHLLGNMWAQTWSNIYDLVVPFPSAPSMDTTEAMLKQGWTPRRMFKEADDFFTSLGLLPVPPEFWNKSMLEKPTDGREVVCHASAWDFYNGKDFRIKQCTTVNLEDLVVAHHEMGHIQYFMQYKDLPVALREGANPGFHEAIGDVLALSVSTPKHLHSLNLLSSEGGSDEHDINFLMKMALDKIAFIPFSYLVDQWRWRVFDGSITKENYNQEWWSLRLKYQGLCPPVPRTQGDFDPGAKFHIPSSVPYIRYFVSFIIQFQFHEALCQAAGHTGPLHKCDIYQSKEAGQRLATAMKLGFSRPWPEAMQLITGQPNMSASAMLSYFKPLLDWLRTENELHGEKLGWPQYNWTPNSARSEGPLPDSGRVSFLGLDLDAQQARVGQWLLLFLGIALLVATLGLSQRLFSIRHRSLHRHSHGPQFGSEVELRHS

highest measured enalaprilat concentration [2] | Compound | decrease in angiotensin II/angiotensin I ratio, median [1] | decrease in angiotensin II/angiotensin I ratio, range [1] | mean inhibition of ACE activity (ACE activity) | apparent central volume of distribution of enalaprilat [3] | apparent clearance of enalaprilat [3]
 | CCOC(=O)[C@H](CCc1ccccc1)N[C@@H](C)C(=O)N1CCC[C@H]1C(=O)O [enalapril] | 79.3% | 21.4–92.7% | 75.5% |  | 
18.3 µg/L | C[C@H](N[C@@H](CCc1ccccc1)C(=O)O)C(=O)N1CCC[C@H]1C(=O)O [enalaprilat] |  |  |  | 168.8 L | 18.2 L/h

From publication PMC12567347, “Angiotensin II/Angiotensin I Ratio as a New Pharmacodynamic Parameter for Population Modelling in Healthy Adults and Children with Heart Failure Treated with Enalapril” (Pharmaceutics, 2025)
